Some test systems named below: 786-0 renal; DMS 273 small cell lung; RXF-631 renal; KM20L2 colon; LXFL 529 NSCLC; DLD-1 colon; SN12K1 renal; P388 leukemia; P388/ADR leukemia.
Experiment in all cases: NCI tumour cell line growth inhibition, 48 h

Each structure is given as a SMILES string.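 Briefly, cells in 96-well plates were exposed to five compound concentrations for 48 h, and endpoints were estimated by linear interpolation. TGI marks complete inhibition of growth.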

For the compound `O=C/C=C/c1ccco1`, in the assay with 786-0 renal, the TGI is greater than 100 µM.

Regarding `COc1cc(C2C(C(=O)O)=C(COC(C)=O)Oc3cc4c(cc32)OCO4)cc(OC)c1OC` (stereo not given), the TGI with DMS 273 small cell lung, with RXF-631 renal and in the assay with KM20L2 colon was greater than 100 µM throughout.

Regarding `N=C(N)SCc1ccc(Cl)cc1Cl` (tested in a mixture with another compound), the TGI in the assay with 786-0 renal was found to be 26.9 µM.

Turning to `CNC(=O)N(C)COC`, the TGI in the assay on LXFL 529 NSCLC, in the assay with DLD-1 colon and with KM20L2 colon was greater than 100 µM throughout.

For `O=C(O)c1cn2c3c(cc(N4CCN(CCO)CC4)cc3c1=O)SCC2`, the TGI with SN12K1 renal, with P388 leukemia, with DLD-1 colon, in the assay on DMS 273 small cell lung, in the assay with P388/ADR leukemia and with KM20L2 colon was greater than 100 µM in each case.

In the assay with 786-0 renal, `CC(C)C1=CCC2C(=C1)CCC1C(C)(C(=O)O)CCCC21C` (stereo not given) (tested in a mixture with another compound) came in with a TGI greater than 100 µM.

The values above are taken from PubChem BioAssay (NCI).
